Experiments:
Assay type in all cases: cell-based
[1] = molecular target: T1, ERα (Homo sapiens, UniProt P03372); experiment: Degradation of ERα in T-47D cells (immunoblotting, 4 h); parameters: host or cells: T-47D
T1 sequence (P03372 1-595): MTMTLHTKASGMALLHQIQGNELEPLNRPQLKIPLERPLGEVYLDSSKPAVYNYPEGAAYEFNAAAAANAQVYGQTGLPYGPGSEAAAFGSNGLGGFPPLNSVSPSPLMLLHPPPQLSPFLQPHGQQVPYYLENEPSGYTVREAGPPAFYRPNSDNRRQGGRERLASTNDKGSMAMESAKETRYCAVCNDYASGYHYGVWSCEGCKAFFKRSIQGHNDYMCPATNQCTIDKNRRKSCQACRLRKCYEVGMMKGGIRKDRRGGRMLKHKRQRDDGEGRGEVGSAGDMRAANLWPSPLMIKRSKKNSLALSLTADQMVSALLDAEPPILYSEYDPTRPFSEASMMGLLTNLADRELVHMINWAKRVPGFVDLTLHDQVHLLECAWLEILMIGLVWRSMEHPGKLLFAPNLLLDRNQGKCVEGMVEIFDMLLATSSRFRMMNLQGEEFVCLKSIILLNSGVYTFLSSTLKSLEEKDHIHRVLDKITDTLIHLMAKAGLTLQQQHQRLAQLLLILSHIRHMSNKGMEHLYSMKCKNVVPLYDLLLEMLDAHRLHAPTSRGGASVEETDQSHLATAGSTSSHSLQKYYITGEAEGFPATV
Summary of the method: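 T-47D cells were treated with compound (final 0.15-1000 nM, DMSO) for 4 h at 37°C, 5% CO2. Cells were lysed in RIPA buffer with protease inhibitor, and ERα protein in the cleared lysate was measured by immunoblotting.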

[2] = molecular target: T1, ERα; experiment: Degradation of ERα in MCF-7 cells (immunoblotting, 4 h)
Summary of the method: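 MCF-7 cells treated 4 h at 37°C with compounds at 0.15-1000nM final. ERα in lysates measured by immunoblot, with band grayscale normalized to an internal reference protein. Degradation rate calculated against DMSO-treated control.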

[3] = test system: MCF-7 cells; experiment: Inhibition of cell proliferation of MCF-7 cells (CCK-8, 9 days); conditions: treated for 9 days, CCK-8 kit (Table 6)
Summary of the method: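 MCF-7 cells seeded at 800 cells/well in DMEM with 10% FBS, exposed to a range of compound concentrations for 9 days at 37°C, 5% CO2. Viability read by CCK-8; IC50 derived for proliferation inhibition.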

SMILES | Degradation rate (%) of ERα in T-47D cells ([1]; 1nM compound) [%] | Degradation rate (%) of ERα in T-47D cells ([1]; 10nM compound) [%] | Degradation rate (%) of ERα in MCF-7 cells ([2]; 1nM compound) [%] | Degradation rate (%) of ERα in MCF-7 cells ([2]; 10nM compound) [%] | IC50 [3] [nM]
CN(CC(=O)N1CCC2(CC1)COc1c2ccc2c1CN(C1CCC(=O)NC1=O)C2=O)CC1CCN(c2ccc([C@@H]3c4ccc(O)cc4CC[C@@H]3c3ccccc3)cc2)CC1 (stereo partly drawn) [J10] | 70 | 88 | 50 | 73 | 6.12
O=C1CCC(N2Cc3c(ccc4c3OCC43CCN(C4CCN(C5CCN(c6ccc(C7c8ccc(O)cc8CCC7c7ccccc7)cc6)CC5)CC4F)CC3)C2=O)C(=O)N1 (stereo not drawn) [G13] | 43 | 80 | 30 | 71 | 6.82
O=C1CCC(N2Cc3cc4c(cc3C2=O)CCC2(CN(CC3CCN(C(=O)C5CCN(c6ccc([C@@H]7c8ccc(O)cc8CC[C@@H]7c7ccccc7)cc6)CC5)CC3)C2)O4)C(=O)N1 (stereo partly drawn) [K40] | 40 | 77 | 14 | 45 | 2350
O=C1CCC(N2Cc3c(ccc4c3OCC43CCN(C(=O)CC4CCN(c5ccc([C@@H]6c7ccc(O)cc7CC[C@@H]6c6ccccc6)cc5)CC4)CC3)C2=O)C(=O)N1 (stereo partly drawn) [A124] | 52 | 52 | 18 | 20 | 56400
O=C1CCC(N2Cc3c(ccc4c3OCC43CCN([C@@H]4CCN(CC5CCN(c6ccc([C@@H]7c8ccc(O)cc8CC[C@@H]7c7ccccc7)cc6)CC5)C[C@@H]4F)CC3)C2=O)C(=O)N1 (stereo partly drawn) [J6] | 39 | 81 | 52 | 68 | 9.31
O=C1CCC(N2Cc3c(ccc4c3OCC43CCN(C(=O)C45CCC(CN6CCN(c7ccc([C@@H]8c9ccc(O)cc9CC[C@@H]8c8ccccc8)cc7)CC6)(CC4)CC5)CC3)C2=O)C(=O)N1 (stereo partly drawn) [G23] | 28 | 62 | 1 | 43 | 445
O=C1CCC(N2Cc3c(ccc4c3OCC43CCN(C4CC5(CCN(C6CC7(CCN(c8ccc([C@@H]9c%10ccc(O)cc%10CC[C@@H]9c9ccccc9)cc8)CC7)C6)CC5)C4)CC3)C2=O)C(=O)N1 (stereo partly drawn) [G8] | 45 | 81 | 29 | 73 | 749
O=C1CCC(N2Cc3c(ccc4c3OCC43CCN(C4C5CCC4CN(C(=O)C4CCN(c6ccc([C@@H]7c8ccc(O)cc8CC[C@@H]7c7ccccc7)cc6)CC4)C5)CC3)C2=O)C(=O)N1 (stereo partly drawn) [J4] | 8 | 51 | 32 | 60 | 22.6
CN(CC1CCN(c2ccc([C@@H]3c4ccc(O)cc4CC[C@@H]3c3ccccc3)cc2)CC1)[C@H]1CC[C@@H](C(=O)N2CCC3(CC2)COc2c3ccc3c2CN(C2CCC(=O)NC2=O)C3=O)CC1 (stereo partly drawn) [B34] | 71 | 83 | 64 | 71 | 179
